Data published in patent EP1948196B1, “USE OF TETRAORGANOSILICON COMPOUNDS” (Salama, Zoser B., priority 2005, dated 2007).
Numbered stars: 1 amine (or outer) side, 2 acyl side, 3 side chain; on linkers, the order of the positions; unused ones are H or OH. Bridge positions count the residues as written; N and C are the ends. Peptide text beside a SMILES is read from it. I, II: the chains in the order shown. X2 = c1ccc([Si](O[*:1])(O[*:2])c2ccccc2)cc1; X1 = C[Si](C)(O[*:1])O[*:2]

The compounds below were run on Plasmozytome (assay: not given).

SMILES | Wirkung auf Plasmozytome
N[C@@H](Cc1ccccc1)C(=O)N[C@@H](Cc1ccccc1)C(=O)N[C@@H](Cc1ccccc1)C(=O)N[C@@H](Cc1ccccc1)C(=O)O[Si](OC(=O)[C@H](Cc1ccccc1)NC(=O)[C@H](Cc1ccccc1)NC(=O)[C@H](Cc1ccccc1)NC(=O)[C@@H](N)Cc1ccccc1)(c1ccccc1)c1ccccc1 [Diphenyl bis(tetraphenylalanyl)silylester] | zeigen eine Wirkung
N[C@@H](Cc1ccccc1)C(=O)N[C@@H](Cc1ccccc1)C(=O)N[C@@H](Cc1ccccc1)C(=O)N[C@@H](Cc1ccccc1)C(=O)N[C@@H](Cc1ccccc1)C(=O)N[C@@H](Cc1ccccc1)C(=O)N[C@@H](Cc1ccccc1)C(=O)O[Si](OC(=O)[C@H](Cc1ccccc1)NC(=O)[C@H](Cc1ccccc1)NC(=O)[C@H](Cc1ccccc1)NC(=O)[C@H](Cc1ccccc1)NC(=O)[C@H](Cc1ccccc1)NC(=O)[C@H](Cc1ccccc1)NC(=O)[C@@H](N)Cc1ccccc1)(c1ccccc1)c1ccccc1 [Diphenyl bis(heptaphenylalanyl)silylester] (I: H-FFFFFFF / II: H-FFFFFFF; linker I:C-II:C via X2) | zeigen eine Wirkung
NCC(=O)NCC(=O)NCC(=O)NCC(=O)O[Si](OC(=O)CNC(=O)CNC(=O)CNC(=O)CN)(c1ccccc1)c1ccccc1 [Diphenyl bis(tetraglycyl)silylester] | zeigen eine Wirkung
N[C@@H](Cc1ccccc1)C(=O)N[C@@H](Cc1ccccc1)C(=O)N[C@@H](Cc1ccccc1)C(=O)O[Si](OC(=O)[C@H](Cc1ccccc1)NC(=O)[C@H](Cc1ccccc1)NC(=O)[C@@H](N)Cc1ccccc1)(c1ccccc1)c1ccccc1 [Diphenyl bis(triphenylalanyl)silylester] | zeigen eine Wirkung
N[C@@H](Cc1ccccc1)C(=O)N[C@@H](Cc1ccccc1)C(=O)N[C@@H](Cc1ccccc1)C(=O)N[C@@H](Cc1ccccc1)C(=O)N[C@@H](Cc1ccccc1)C(=O)N[C@@H](Cc1ccccc1)C(=O)N[C@@H](Cc1ccccc1)C(=O)N[C@@H](Cc1ccccc1)C(=O)N[C@@H](Cc1ccccc1)C(=O)O[Si](OC(=O)[C@H](Cc1ccccc1)NC(=O)[C@H](Cc1ccccc1)NC(=O)[C@H](Cc1ccccc1)NC(=O)[C@H](Cc1ccccc1)NC(=O)[C@H](Cc1ccccc1)NC(=O)[C@H](Cc1ccccc1)NC(=O)[C@H](Cc1ccccc1)NC(=O)[C@H](Cc1ccccc1)NC(=O)[C@@H](N)Cc1ccccc1)(c1ccccc1)c1ccccc1 [Diphenyl bis(nonaphenylalanyl)silylester] (I: H-FFFFFFFFF / II: H-FFFFFFFFF; linker I:C-II:C via X2) | zeigen eine Wirkung
N[C@@H](Cc1ccccc1)C(=O)N[C@@H](Cc1ccccc1)C(=O)N[C@@H](Cc1ccccc1)C(=O)N[C@@H](Cc1ccccc1)C(=O)N[C@@H](Cc1ccccc1)C(=O)N[C@@H](Cc1ccccc1)C(=O)N[C@@H](Cc1ccccc1)C(=O)N[C@@H](Cc1ccccc1)C(=O)O[Si](OC(=O)[C@H](Cc1ccccc1)NC(=O)[C@H](Cc1ccccc1)NC(=O)[C@H](Cc1ccccc1)NC(=O)[C@H](Cc1ccccc1)NC(=O)[C@H](Cc1ccccc1)NC(=O)[C@H](Cc1ccccc1)NC(=O)[C@H](Cc1ccccc1)NC(=O)[C@@H](N)Cc1ccccc1)(c1ccccc1)c1ccccc1 [Diphenyl bis(octaphenylalanyl)silylester] (I: H-FFFFFFFF / II: H-FFFFFFFF; linker I:C-II:C via X2) | zeigen eine Wirkung
N[C@@H](Cc1ccccc1)C(=O)N[C@@H](Cc1ccccc1)C(=O)N[C@@H](Cc1ccccc1)C(=O)N[C@@H](Cc1ccccc1)C(=O)N[C@@H](Cc1ccccc1)C(=O)N[C@@H](Cc1ccccc1)C(=O)O[Si](OC(=O)[C@H](Cc1ccccc1)NC(=O)[C@H](Cc1ccccc1)NC(=O)[C@H](Cc1ccccc1)NC(=O)[C@H](Cc1ccccc1)NC(=O)[C@H](Cc1ccccc1)NC(=O)[C@@H](N)Cc1ccccc1)(c1ccccc1)c1ccccc1 [Diphenyl bis(hexaphenylalanyl)silylester] (I: H-FFFFFF / II: H-FFFFFF; linker I:C-II:C via X2) | zeigen eine Wirkung
N[C@@H](Cc1ccccc1)C(=O)N[C@@H](Cc1ccccc1)C(=O)N[C@@H](Cc1ccccc1)C(=O)N[C@@H](Cc1ccccc1)C(=O)N[C@@H](Cc1ccccc1)C(=O)N[C@@H](Cc1ccccc1)C(=O)N[C@@H](Cc1ccccc1)C(=O)N[C@@H](Cc1ccccc1)C(=O)N[C@@H](Cc1ccccc1)C(=O)N[C@@H](Cc1ccccc1)C(=O)O[Si](OC(=O)[C@H](Cc1ccccc1)NC(=O)[C@H](Cc1ccccc1)NC(=O)[C@H](Cc1ccccc1)NC(=O)[C@H](Cc1ccccc1)NC(=O)[C@H](Cc1ccccc1)NC(=O)[C@H](Cc1ccccc1)NC(=O)[C@H](Cc1ccccc1)NC(=O)[C@H](Cc1ccccc1)NC(=O)[C@H](Cc1ccccc1)NC(=O)[C@@H](N)Cc1ccccc1)(c1ccccc1)c1ccccc1 [Diphenyl bis(decaphenylalanyl) silylester] (I: H-FFFFFFFFFF / II: H-FFFFFFFFFF; linker I:C-II:C via X2) | zeigen eine Wirkung

These compounds were tested on Lymphome (assay: Effect on lymphomas).

SMILES | Wirkung auf Lymphome
C[Si](C)(OC(=O)[C@H](Cc1ccccc1)NC(=O)[C@H](Cc1ccccc1)NC(=O)[C@H](Cc1ccccc1)NC(=O)[C@H](Cc1ccccc1)NC(=O)[C@H](Cc1ccccc1)NC(=O)[C@H](Cc1ccccc1)NC(=O)[C@H](Cc1ccccc1)NC(=O)[C@@H](N)Cc1ccccc1)OC(=O)[C@H](Cc1ccccc1)NC(=O)[C@H](Cc1ccccc1)NC(=O)[C@H](Cc1ccccc1)NC(=O)[C@H](Cc1ccccc1)NC(=O)[C@H](Cc1ccccc1)NC(=O)[C@H](Cc1ccccc1)NC(=O)[C@H](Cc1ccccc1)NC(=O)[C@@H](N)Cc1ccccc1 [Dimethyl bis(octaphenylalanyl)silylester] (I: H-FFFFFFFF / II: H-FFFFFFFF; linker I:C-II:C via X1) | zeigen eine Wirkung
